Measurements as given in patent US9247759B2, “Identification of human T2R receptors that respond to bitter compounds that elicit the bitter taste in compositions, and the use thereof in assays to identify compounds that inhibit (block) bitter taste in compositions and use thereof” (SENOMYX, INC., priority 2007, dated 2016).
Read-outs that look alike come from different tables or passages of the source.

Key:
hT2R10 = hT2R10 (Homo sapiens (Human), UniProt Q9NYW0); experiment: hT2R panel inhibition, transient HEK293 G16g44, agonist Strychnine 50 μM; format: cell-based
hT2R10, sequence (Q9NYW0 whole entry): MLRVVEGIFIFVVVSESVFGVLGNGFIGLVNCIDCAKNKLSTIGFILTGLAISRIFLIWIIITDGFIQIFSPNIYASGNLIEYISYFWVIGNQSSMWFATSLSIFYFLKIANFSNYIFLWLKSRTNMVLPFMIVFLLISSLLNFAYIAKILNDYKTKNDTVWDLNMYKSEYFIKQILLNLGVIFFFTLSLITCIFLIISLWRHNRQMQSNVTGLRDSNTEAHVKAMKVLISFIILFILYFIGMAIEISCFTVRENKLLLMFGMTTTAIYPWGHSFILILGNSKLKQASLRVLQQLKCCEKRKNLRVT

hT2R71 = hT2R71 (Homo sapiens (Human), UniProt P59536); experiment: hT2R panel inhibition, transient HEK293 G16g44, agonist Picric Acid 10 μM; format: cell-based; settings: HEK293, compound at 25 μM
hT2R71, sequence (P59536 whole entry): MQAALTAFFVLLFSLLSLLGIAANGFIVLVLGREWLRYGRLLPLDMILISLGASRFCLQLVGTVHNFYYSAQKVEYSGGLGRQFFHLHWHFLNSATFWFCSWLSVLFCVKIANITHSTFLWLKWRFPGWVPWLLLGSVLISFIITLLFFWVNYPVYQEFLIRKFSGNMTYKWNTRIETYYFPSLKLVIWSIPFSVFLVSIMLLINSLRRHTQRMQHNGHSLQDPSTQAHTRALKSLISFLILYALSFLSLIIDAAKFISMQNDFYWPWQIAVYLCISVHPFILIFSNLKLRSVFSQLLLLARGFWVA
Method in brief: (§1)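 Receptor activity was measured in functional assays after single-receptor transient transfection; bitter agonists were used at their EC80 levels. A decrease in that activity when the test compound was added was taken as inhibition.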

hT2R3 = hT2R3 (Homo sapiens (Human), UniProt Q9NYW6); experiment: hT2R panel inhibition, transient HEK293 G16g44, agonist Chloroquine pH6.5 50 μM; format: cell-based; settings: HEK293, compound at 25 μM
hT2R3, sequence (Q9NYW6 whole entry): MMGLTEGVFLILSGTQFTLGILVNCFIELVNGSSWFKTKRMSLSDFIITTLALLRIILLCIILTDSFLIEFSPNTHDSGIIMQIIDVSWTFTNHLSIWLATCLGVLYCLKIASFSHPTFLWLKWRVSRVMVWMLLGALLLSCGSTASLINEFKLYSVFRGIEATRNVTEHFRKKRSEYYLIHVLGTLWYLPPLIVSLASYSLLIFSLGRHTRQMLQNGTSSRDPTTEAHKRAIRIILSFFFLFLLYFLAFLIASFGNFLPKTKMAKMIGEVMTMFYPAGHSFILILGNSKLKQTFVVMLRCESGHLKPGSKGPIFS
Method in brief: as §1

hT2R14 [1] = biological target: T1, hT2R14 (Homo sapiens (Human), UniProt Q9NYV8); experiment: hT2R panel inhibition, transient HEK293 G16g44, agonist Aristolochic Acid 2 μM; format: cell-based; settings: HEK293, compound at 25 μM
T1 sequence (Q9NYV8 whole entry): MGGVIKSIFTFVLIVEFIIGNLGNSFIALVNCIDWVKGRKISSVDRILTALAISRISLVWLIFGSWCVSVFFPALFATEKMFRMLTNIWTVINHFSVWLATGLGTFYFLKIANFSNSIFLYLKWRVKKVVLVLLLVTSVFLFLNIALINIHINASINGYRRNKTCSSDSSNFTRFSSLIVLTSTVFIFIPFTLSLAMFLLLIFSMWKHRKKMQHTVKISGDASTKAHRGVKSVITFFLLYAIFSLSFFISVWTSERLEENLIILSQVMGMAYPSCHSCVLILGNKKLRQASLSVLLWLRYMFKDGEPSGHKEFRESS
Method in brief: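 Each hT2R was transiently transfected into HEK293 cells stably expressing G16g44 and assayed functionally for inhibition of agonist response. Agonists were applied at EC80: andrographolide at 0.5 mM for hT2R8 and aristolochic acid at 2 μM for hT2R14.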

hT2R14 [2] = biological target: T1, hT2R14; experiment: hT2R14 antagonist high-throughput FLIPR assay, stable cell line with G16g44, agonist aristolochic acid; format: cell-based; settings: read-out: IC50 on hT2R14 bitter receptor
Method in brief: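 HEK293 cells stably expressing hT2R14 with chimeric G16g44 were stimulated with aristolochic acid (3 μM), giving 70-80% of maximal receptor activity. Test compounds were added together with the agonist, and antagonism was read as fluorescent calcium signal on FLIPR.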

hT2R55 = experiment: hT2R panel inhibition, transient HEK293 G16g44, agonist Cinchonine 150 μM; format: cell-based, human; settings: compound at 25 μM
Method in brief: as §1

hT2R64 = hT2R64 (Homo sapiens (Human), UniProt P59538); experiment: hT2R panel inhibition, transient HEK293 G16g44, agonist Aristolochic Acid 1 μM; format: cell-based; settings: HEK293, compound at 25 μM
hT2R64, sequence (P59538 whole entry): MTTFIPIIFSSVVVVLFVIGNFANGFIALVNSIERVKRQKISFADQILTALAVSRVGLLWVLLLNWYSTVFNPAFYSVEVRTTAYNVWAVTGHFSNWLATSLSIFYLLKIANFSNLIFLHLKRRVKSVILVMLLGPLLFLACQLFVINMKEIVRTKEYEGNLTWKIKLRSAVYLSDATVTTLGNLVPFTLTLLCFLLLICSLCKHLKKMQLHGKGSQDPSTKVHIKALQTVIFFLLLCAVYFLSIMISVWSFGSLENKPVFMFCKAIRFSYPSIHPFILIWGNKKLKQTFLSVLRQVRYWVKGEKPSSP
Method in brief: as §1

hT2R65 = experiment: hT2R panel inhibition, transient HEK293 G16g44, agonist Oleuropein 1 mM; format: cell-based, human; settings: compound at 25 μM
Procedure: (§2) Specifically, in order to evaluate the inhibitory selectivity of the Compound C compound, this compound was tested against 22 human T2Rs which were deorphaned by Senomyx. These receptors and the bitter ligands that activate these human T2Rs are reported in earlier patent applications which are incorporated by reference herein. These 22 human T2Rs are hT2R1, 3, 4, 5, 7, 8, 9, 10, 13, 14, 16, 44, 51, 54, 55, 61, 63, 64, 65, 67, 71 and 75. The amino acid and nucleic acid sequences of all of these T2Rs may be found in these earlier patent applications. These human T2Rs were each individually transiently transfected into HEK293 cells that stably express the promiscuous G protein G16g44 and functional assays were effected using these receptors as disclosed in these same patent applications. […] The ligands were used at EC80 concentration levels. The list of bitter ligands utilized and the tested ligand concentrations are contained in Table 5 of this example.
(§3) Relating to the foregoing, FIG. 5 contains experimental results wherein Compound C was tested with different agonist compounds. The inhibition activity is represented by the reduction of receptor activity in the presence of Compound C. […] These 13 hT2Rs are hT2R3, 7, 10, 14, 16, 44, 51, 55, 61, 63, 64, 65, and 71.

hT2R75 = hT2R75 (Homo sapiens (Human), UniProt P59540); experiment: hT2R panel inhibition, transient HEK293 G16g44, agonist Strychnine 1 μM; format: cell-based
hT2R75, sequence (P59540 whole entry): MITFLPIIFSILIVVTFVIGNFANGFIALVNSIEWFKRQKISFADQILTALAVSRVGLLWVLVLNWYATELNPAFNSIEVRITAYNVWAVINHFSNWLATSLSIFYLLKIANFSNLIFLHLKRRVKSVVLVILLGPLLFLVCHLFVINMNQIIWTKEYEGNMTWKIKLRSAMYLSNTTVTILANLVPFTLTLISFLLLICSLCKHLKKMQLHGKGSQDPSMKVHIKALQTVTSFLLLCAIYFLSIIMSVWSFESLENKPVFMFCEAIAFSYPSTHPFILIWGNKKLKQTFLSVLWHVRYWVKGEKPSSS
Procedure: as §2, §3

hT2R61 = hT2R61 (Homo sapiens (Human), UniProt P59537); experiment: hT2R panel inhibition, transient HEK293 G16g44, agonist Aristolochic Acid 25 nM; format: cell-based; settings: HEK293, compound at 25 μM
hT2R61, sequence (P59537 whole entry): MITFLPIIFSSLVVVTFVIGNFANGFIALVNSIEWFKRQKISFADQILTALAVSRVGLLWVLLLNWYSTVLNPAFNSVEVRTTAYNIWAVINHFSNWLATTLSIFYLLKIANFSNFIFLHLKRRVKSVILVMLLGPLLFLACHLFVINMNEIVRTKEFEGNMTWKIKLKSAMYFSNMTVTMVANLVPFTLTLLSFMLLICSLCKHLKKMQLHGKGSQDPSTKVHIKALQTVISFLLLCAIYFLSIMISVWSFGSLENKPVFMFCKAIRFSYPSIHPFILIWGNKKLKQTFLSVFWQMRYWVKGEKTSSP
Method in brief: as §1

hT2R44 = experiment: hT2R panel inhibition, transient HEK293 G16g44, agonist Denatonium 0.5 μM; format: cell-based, human; settings: compound at 25 μM; for screening result against bitter receptor 44: receptor activated to EC80 with the corresponding agonist
Method in brief: as §1

hT2R16 = hT2R16 (Homo sapiens (Human), UniProt Q9NYV7); experiment: hT2R panel inhibition, transient HEK293 G16g44, agonist Salicin 1 mM; format: cell-based; settings: HEK293, compound at 25 μM
hT2R16, sequence (Q9NYV7 whole entry): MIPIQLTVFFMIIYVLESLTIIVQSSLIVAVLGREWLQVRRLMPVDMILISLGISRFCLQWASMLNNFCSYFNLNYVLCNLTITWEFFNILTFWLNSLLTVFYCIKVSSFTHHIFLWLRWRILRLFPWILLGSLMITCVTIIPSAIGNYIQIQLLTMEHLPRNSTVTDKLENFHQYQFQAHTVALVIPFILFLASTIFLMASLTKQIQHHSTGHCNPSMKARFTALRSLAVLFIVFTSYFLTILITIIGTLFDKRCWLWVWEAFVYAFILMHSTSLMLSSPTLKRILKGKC
Method in brief: as §1

hT2R63 = experiment: hT2R panel inhibition, transient HEK293 G16g44, agonist Caffeine 1 mM or Andrographolide 100 μM; format: cell-based, human; settings: compound at 25 μM; for screening result against bitter receptor 63: receptor activated to EC80 with the corresponding agonist
Method in brief: as §1

hT2R5 = hT2R5 (Homo sapiens (Human), UniProt Q9NYW4); experiment: hT2R panel inhibition, transient HEK293 G16g44, agonist Picoline 10 mM; format: cell-based; settings: HEK293, compound at 25 μM; receptor activated to EC80 with the corresponding agonist; read-out: screening result against bitter receptor 5
hT2R5, sequence (Q9NYW4 whole entry): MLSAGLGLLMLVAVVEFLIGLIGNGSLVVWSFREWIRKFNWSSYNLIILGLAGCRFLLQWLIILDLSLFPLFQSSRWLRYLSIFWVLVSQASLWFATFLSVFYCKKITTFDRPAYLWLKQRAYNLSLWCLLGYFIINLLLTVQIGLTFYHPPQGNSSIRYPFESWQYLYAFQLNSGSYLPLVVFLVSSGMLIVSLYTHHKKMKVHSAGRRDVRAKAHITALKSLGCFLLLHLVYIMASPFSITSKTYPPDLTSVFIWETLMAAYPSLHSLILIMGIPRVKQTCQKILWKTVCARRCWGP
Method in brief: as §1

hT2R67 = experiment: hT2R panel inhibition, transient HEK293 G16g44, agonist Andrographolide 5 μM; format: cell-based, human; settings: compound at 25 μM; receptor activated to EC80 with the corresponding agonist
Procedure: as §2, §3

hT2R54 = experiment: hT2R panel inhibition, transient HEK293 G16g44, agonist Ranitidine 5 mM; format: cell-based, human; settings: compound at 25 μM; receptor activated to EC80 with the corresponding agonist
Procedure: as §2, §3

[3] = receptor activated to EC80 with agonist
[4] = receptor activated to EC80 with the corresponding agonist, read-out: screening result against bitter receptor 71
[5] = receptor activated to EC80 with the corresponding agonist, read-out: screening result against bitter receptor 3
[6] = receptor activated to EC80 with the corresponding agonist, read-out: screening result against bitter receptor 14
[7] = receptor activated to EC80 with the corresponding agonist
[8] = receptor activated to EC80 with the corresponding agonist, read-out: screening result against bitter receptor 64
[9] = receptor activated to EC80 with the corresponding agonist, read-out: screening result against bitter receptor 61
[10] = receptor activated to EC80 with the corresponding agonist, read-out: screening result against bitter receptor 16
[11] = HEK293, read-out: screening result against bitter receptor 75, compound at 25 μM, receptor activated to EC80 with the corresponding agonist

COc1ccc(OC)c(/C=C2\SC(=S)N(CCC(=O)O)C2=O)c1 [Example 6-1, (Z)-3-(5-(2,5-dimethoxybenzylidene)-4-oxo-2-thioxothiazolidin-3-yl)propanoic acid]
inhibition at 25 µM (hT2R10; HEK293, read-out: inhibition of bitter receptor 10, compound at 25 μM, receptor activated to EC80 with agonist): > 80%
inhibition at 25 µM (hT2R71; receptor activated to EC80 with agonist, read-out: inhibition of bitter receptor 71): 20 to 40%
inhibition at 25 µM (hT2R3; receptor activated to EC80 with agonist, read-out: inhibition of bitter receptor 3): 20 to 40%
inhibition at 25 µM (hT2R14 [1]; receptor activated to EC80 with agonist, read-out: inhibition of bitter receptor 14): > 80%
IC50 (hT2R14 [2]): 2750 nM
inhibition of bitter receptor 55 (hT2R55; [3]): + (20% to 40% inhibition = +)
inhibition at 25 µM (hT2R64; receptor activated to EC80 with agonist, read-out: inhibition of bitter receptor 64): 60 to 80%
inhibition of bitter receptor 65 (hT2R65; [3]): + (20% to 40% inhibition = +)
inhibition at 25 µM (hT2R75; HEK293, read-out: inhibition of bitter receptor 75, compound at 25 μM, receptor activated to EC80 with agonist): 20 to 40%
inhibition at 25 µM (hT2R61; receptor activated to EC80 with agonist, read-out: inhibition of bitter receptor 61): 40 to 60%
inhibition of bitter receptor 44 (hT2R44; [3]): ++ (40% to 60% inhibition = ++)
inhibition at 25 µM (hT2R16; receptor activated to EC80 with agonist, read-out: inhibition of bitter receptor 16): 20 to 40%
inhibition of bitter receptor 63 (hT2R63; [3]): + (20% to 40% inhibition = +)

O=C(O)c1ccc(CN(Cc2ccccc2)S(=O)(=O)c2ccc(C(=O)O)cc2)cc1 [Example 5-48, 4-((N-benzyl-4-carboxyphenylsulfonamido)methyl)benzoic acid]
inhibition at 25 µM (hT2R10; HEK293, read-out: screening result against bitter receptor 10, compound at 25 μM, receptor activated to EC80 with the corresponding agonist): 60 to 80%
inhibition at 25 µM (hT2R71; [4]): 60 to 80%
inhibition at 25 µM (hT2R5): 20 to 40%
screening result against bitter receptor 67 (hT2R67): + (20% to 40% inhibition = +)
inhibition at 25 µM (hT2R3; [5]): 40 to 60%
inhibition at 25 µM (hT2R14 [1]; [6]): > 80%
screening result against bitter receptor 55 (hT2R55; [7]): ++++ (80% or greater inhibition = ++++)
screening result against bitter receptor 54 (hT2R54): ++ (40% to 60% inhibition = ++)
inhibition at 25 µM (hT2R64; [8]): 60 to 80%
screening result against bitter receptor 65 (hT2R65; [7]): ++ (40% to 60% inhibition = ++)
inhibition at 25 µM (hT2R61; [9]): > 80%
screening result against bitter receptor 44 (hT2R44): +++ (60% to 80% inhibition = +++)
inhibition at 25 µM (hT2R16; [10]): 20 to 40%

COc1ccc(CN(Cc2ccccc2)S(=O)(=O)c2ccc(CCC(=O)O)cc2)cc1 [Example 5-59, 3-(4-(N-benzyl-N-(4-methoxybenzyl)sulfamoyl)phenyl)propanoic acid]
inhibition at 25 µM (hT2R75; [11]): 20 to 40%
inhibition at 25 µM (hT2R61; [9]): 40 to 60%
screening result against bitter receptor 63 (hT2R63): + (20% to 40% inhibition = +)

COc1ccccc1CN(Cc1ccc(C(=O)O)cc1)S(=O)(=O)c1ccc(O)cc1 [Example 5-42, 4-((4-hydroxy-N-(2-methoxybenzyl)phenylsulfonamido)methyl)-benzoic acid]
inhibition at 25 µM (hT2R71; [4]): 40 to 60%
inhibition at 25 µM (hT2R3; [5]): 20 to 40%
inhibition at 25 µM (hT2R14 [1]; [6]): > 80%
IC50 (hT2R14 [2]): 2560 nM
inhibition at 25 µM (hT2R64; [8]): 40 to 60%
inhibition at 25 µM (hT2R75; [11]): 20 to 40%
inhibition at 25 µM (hT2R61; [9]): > 80%
screening result against bitter receptor 44 (hT2R44): ++ (40% to 60% inhibition = ++)
inhibition at 25 µM (hT2R16; [10]): 20 to 40%
screening result against bitter receptor 63 (hT2R63): ++ (40% to 60% inhibition = ++)
